Values joined by “and” are separate entries in the source; they are usually repeats but may differ in a detail not shown here. Equal entries are not always repeated. “Also recorded” adds a separate entry of the source.
Tests used:
[1] = molecular target: T1, THRα (Homo sapiens, UniProt P10827); assay: Gal4-hybrid selectivity assay THRα; format: cell-based; conditions: 3 µM; reference agonist = 100%
T1 construct: chimeric receptors composed of the Gal4-DBD and the hinge region and LBD; expressed in transfected cells; host or cells: HEK293T
T1 sequence (P10827 128-410 isoform P10827-2 limits assumed): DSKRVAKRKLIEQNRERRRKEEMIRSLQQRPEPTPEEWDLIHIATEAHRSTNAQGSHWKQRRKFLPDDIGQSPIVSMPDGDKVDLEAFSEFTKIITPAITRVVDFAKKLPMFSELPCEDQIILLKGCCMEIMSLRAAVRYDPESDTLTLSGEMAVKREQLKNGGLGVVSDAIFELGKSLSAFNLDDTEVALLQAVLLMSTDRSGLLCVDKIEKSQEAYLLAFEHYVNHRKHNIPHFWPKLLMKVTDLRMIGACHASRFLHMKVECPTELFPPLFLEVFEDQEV
Experimental: (§1) Nurr1 modulation was determined in a Gal4 hybrid reporter gene assay in HEK293T cells (German Collection of Microorganisms and Cell Culture GmbH, DSMZ) using pFR-Luc (Stratagene, La Jolla, CA, USA; reporter), pRL-SV40 (Promega, Madison, WI, USA; internal control) and pFA-CMV-hNurr1-LBD[14], coding for the hinge region and ligand binding domain of the canonical isoform of human Nurr1. […] After 24 h, the medium was changed to Opti-MEM without supplements, and cells were transiently transfected using Lipofectamine LTX reagent (Invitrogen, Carlsbad, CA, USA) according to the manufacturer’s protocol. Five hours after transfection, cells were incubated with the test compounds in Opti-MEM supplemented with penicillin (100 U/mL), streptomycin (100 μg/mL), and 0.1% DMSO for 16 h before luciferase activity was measured using the Dual-Glo Luciferase Assay System (Promega) according to the manufacturer’s protocol on a Tecan Spark luminometer (Tecan Deutschland GmbH, Crailsheim, Germany). Firefly luminescence was divided by Renilla luminescence and multiplied by 1000 resulting in relative light units (RLU) to normalize for transfection efficiency and cell growth. Fold activation was obtained by dividing the mean RLU of the test compound by the mean RLU of the untreated control. All samples were tested in at least three biologically independent experiments in duplicates. […]

[2] = molecular target: T2, RARα (Homo sapiens, UniProt P10276); assay: Gal4-hybrid selectivity assay RARα; format: cell-based; conditions: 3 µM; reference agonist = 100%
T2 construct: chimeric receptors composed of the Gal4-DBD and the hinge region and LBD; expressed in transfected cells; host or cells: HEK293T
T2 sequence (P10276 183-417 limits assumed): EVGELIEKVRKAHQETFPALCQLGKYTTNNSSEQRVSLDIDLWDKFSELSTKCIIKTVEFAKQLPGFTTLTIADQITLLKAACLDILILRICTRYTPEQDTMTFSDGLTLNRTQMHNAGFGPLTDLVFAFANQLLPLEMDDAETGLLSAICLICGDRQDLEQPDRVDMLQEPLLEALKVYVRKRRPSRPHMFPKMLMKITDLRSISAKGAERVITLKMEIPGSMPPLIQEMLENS
Experimental: as §1

[3] = molecular target: T3, PPARα (Homo sapiens, UniProt Q07869); assay: Gal4-hybrid selectivity assay PPARα; format: cell-based; conditions: 3 µM; reference agonist = 100%
T3 construct: chimeric receptors composed of the Gal4-DBD and the hinge region and LBD; expressed in transfected cells; host or cells: HEK293T
T3 sequence (Q07869 239-466 limits assumed): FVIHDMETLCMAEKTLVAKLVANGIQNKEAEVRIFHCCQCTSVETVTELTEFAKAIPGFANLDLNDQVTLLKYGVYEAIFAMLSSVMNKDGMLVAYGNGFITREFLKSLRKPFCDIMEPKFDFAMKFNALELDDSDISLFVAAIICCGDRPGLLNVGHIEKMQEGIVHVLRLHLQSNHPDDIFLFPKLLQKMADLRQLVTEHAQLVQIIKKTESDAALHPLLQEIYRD
Experimental: as §1

[4] = molecular target: T4, PPARγ (Homo sapiens, UniProt P37231); assay: Gal4-hybrid selectivity assay PPARγ; format: cell-based; conditions: 3 µM; reference agonist = 100%
T4 construct: chimeric receptors composed of the Gal4-DBD and the hinge region and LBD; expressed in transfected cells; host or cells: HEK293T
T4 sequence (P37231 238-503 limits assumed): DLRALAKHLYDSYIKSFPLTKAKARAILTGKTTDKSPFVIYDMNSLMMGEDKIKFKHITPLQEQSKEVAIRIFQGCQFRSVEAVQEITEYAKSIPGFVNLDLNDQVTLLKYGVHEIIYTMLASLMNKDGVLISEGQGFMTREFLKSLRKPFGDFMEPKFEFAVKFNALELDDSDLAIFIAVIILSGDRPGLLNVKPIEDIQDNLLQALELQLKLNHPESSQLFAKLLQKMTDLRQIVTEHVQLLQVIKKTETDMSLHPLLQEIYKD
Experimental: as §1

[5] = molecular target: T5, PPARδ (Homo sapiens, UniProt Q03181); assay: Gal4-hybrid selectivity assay PPARδ; format: cell-based; conditions: 3 µM; reference agonist = 100%
T5 construct: chimeric receptors composed of the Gal4-DBD and the hinge region and LBD; expressed in transfected cells; host or cells: HEK293T
T5 sequence (Q03181 211-439 limits assumed): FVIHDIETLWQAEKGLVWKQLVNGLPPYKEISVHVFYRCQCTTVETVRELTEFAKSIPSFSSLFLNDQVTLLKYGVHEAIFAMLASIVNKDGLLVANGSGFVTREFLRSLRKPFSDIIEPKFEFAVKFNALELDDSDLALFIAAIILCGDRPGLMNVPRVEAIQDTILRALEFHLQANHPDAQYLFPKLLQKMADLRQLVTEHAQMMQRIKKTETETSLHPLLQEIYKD
Experimental: as §1

[6] = molecular target: T6, VDR (Homo sapiens, UniProt P11473); assay: Gal4-hybrid selectivity assay VDR; format: cell-based; conditions: 3 µM; reference agonist = 100%
T6 construct: chimeric receptors composed of the Gal4-DBD and the hinge region and LBD; expressed in transfected cells; host or cells: HEK293T
T6 sequence (P11473 127-423 limits assumed): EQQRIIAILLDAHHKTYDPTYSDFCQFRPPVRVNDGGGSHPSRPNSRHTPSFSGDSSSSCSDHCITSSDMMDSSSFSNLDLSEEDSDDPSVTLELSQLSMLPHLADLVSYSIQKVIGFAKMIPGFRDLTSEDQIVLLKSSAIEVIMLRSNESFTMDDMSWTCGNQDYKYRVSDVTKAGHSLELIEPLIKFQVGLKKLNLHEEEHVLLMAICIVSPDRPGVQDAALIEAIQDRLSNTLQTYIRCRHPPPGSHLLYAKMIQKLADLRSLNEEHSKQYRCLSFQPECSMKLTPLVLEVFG

[7] = molecular target: T7, FXR (Homo sapiens, UniProt Q96RI1); assay: Gal4-hybrid selectivity assay FXR; format: cell-based; conditions: 3 µM; reference agonist = 100%
T7 construct: chimeric receptors composed of the Gal4-DBD and the hinge region and LBD; expressed in transfected cells; host or cells: HEK293T
T7 sequence (Q96RI1 262-486 limits assumed): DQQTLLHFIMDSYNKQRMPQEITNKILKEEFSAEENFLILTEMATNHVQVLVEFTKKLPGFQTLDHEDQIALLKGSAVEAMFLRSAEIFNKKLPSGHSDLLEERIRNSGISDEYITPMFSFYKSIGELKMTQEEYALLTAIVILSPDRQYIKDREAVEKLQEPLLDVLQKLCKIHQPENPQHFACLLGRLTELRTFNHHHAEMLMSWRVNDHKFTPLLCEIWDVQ
Experimental: as §1

[8] = molecular target: T8, LXRα (Homo sapiens, UniProt Q13133); assay: Gal4-hybrid selectivity assay LXRα; format: cell-based; conditions: 3 µM; reference agonist = 100%
T8 construct: chimeric receptors composed of the Gal4-DBD and the hinge region and LBD; expressed in transfected cells; host or cells: HEK293T
T8 sequence (Q13133 209-447 limits assumed): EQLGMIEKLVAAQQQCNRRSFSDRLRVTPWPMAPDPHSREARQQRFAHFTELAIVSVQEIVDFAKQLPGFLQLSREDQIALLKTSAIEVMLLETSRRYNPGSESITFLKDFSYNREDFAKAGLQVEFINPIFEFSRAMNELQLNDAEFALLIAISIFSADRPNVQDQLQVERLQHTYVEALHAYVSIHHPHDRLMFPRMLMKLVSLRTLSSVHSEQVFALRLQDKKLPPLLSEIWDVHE
Experimental: as §1

[9] = molecular target: T9, RXRα (Homo sapiens, UniProt P19793); assay: Gal4-hybrid selectivity assay RXRα; format: cell-based; conditions: 3 µM; reference agonist = 100%
T9 construct: chimeric receptors composed of the Gal4-DBD and the hinge region and LBD; expressed in transfected cells; host or cells: HEK293T
T9 sequence (P19793 227-458 limits assumed): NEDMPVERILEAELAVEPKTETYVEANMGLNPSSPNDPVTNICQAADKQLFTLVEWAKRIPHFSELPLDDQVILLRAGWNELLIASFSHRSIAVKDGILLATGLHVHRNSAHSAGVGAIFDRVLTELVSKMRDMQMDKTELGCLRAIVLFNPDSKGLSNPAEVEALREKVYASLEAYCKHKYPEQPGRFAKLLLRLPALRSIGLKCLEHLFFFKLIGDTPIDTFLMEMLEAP
Experimental: as §1

[10] = system: N27 rat neurons; assay: WST-8 cytotoxicity assay, N27; format: cell-based
Experimental: Each sample was prepared in four biologically independent repeats. After incubation for 24 h, the medium was refreshed and 10% water-soluble tetrazolinum salt (Cell Counting Kit-8, MedChemExpress) was added to assess metabolic activity. After 4 h, absorbance was measured at 450 nm using a Tecan Spark Cyto instrument (Tecan).

[11] = Parallel artificial membrane permeability assay (PAMPA); format: in vitro ADME; conditions: 500 µM donor, pH 7.4, 18 h
Experimental: Passive lipid membrane diffusion of test compounds was determined using Merck Millipore MultiScreen Filter Plates (0.45 μm pore diameter, hydrophobic PVDF). The filter inserts were coated with 1% L-α-phosphatidylcholine (Fluka Analytical) in n-dodecan. The test compounds were then added to the donor compartment at a final concentration of 500 µM in a phosphate buffer pH 7.4 containing 5% DMSO with a total volume of 150 µL. The acceptor compartment was filled with 300 µL PBS containing 5% DMSO. Additionally, three equilibrium samples were prepared by directly adding the donor solution to the acceptor compartment for the calculation of log Pe values. The filter plates were incubated for 18 h before the test compound concentrations in the acceptor compartments and in the equilibrium, samples were determined by UV absorbance at 320 nm (34), 360 nm (36), 310 nm (41), or 315 nm (42) with external calibration in a 96 well quartz plate on a SpectraMax M2e microplate reader (Molecular Devices). logPe values were calculated according to the formula published by Sugano and colleagues.

[12] = system: HBEC-5i human brain endothelial cells; assay: In vitro blood-brain-barrier model; format: in vitro ADME; conditions: HBEC-5i trans-well, 10 µM, 60 min
Experimental: Permeation of test compounds through a human brain endothelial cell barrier was evaluated using the Corning Costar 3470 Transwell Plate system (0.4 μm pore diameter with 6.5 mm inserts) and HBEC-5i cells (ATCC, CRL-3245). Filter inserts were coated one day before seeding with 50 μL 0.01% rat-tail collagen type I ([…], Sigma-Aldrich) in PBS. 60,000 HBEC-5i cells in 100 μL HBEC-5i-Medium (DMEM/F12 with 10% FCS and 40 μg/mL ECGS) were seeded after aspiration of the coating-supernatant in each insert with 600 μL HBEC-5i-Medium in each receiver well. After 24 h incubation at 37 °C with 5% CO2, the medium was exchanged to 600 μL T98G cell supernatant in receiver wells and 100 μL fresh HBEC-5i-Medium in inserts. The medium exchange was repeated every second day. On day 7 after seeding, the medium in the receiver wells was replaced by 600 μL Hank's balanced salt solution (HBSS) containing 10 mM HEPES and 0.1% DMSO and 100 μL test compound mixtures (antipyrine and test compound; each at 10 μM) in HBSS containing 10 mM HEPES and 0.1% DMSO were added to inserts. After 60 min incubation, 100 μL samples were taken from the receiver wells and diluted in 400 μL (75%/25% A/B; A=Formic acid 0.1% in water; B = Acetonitrile). Test compound concentrations in the samples were determined by LC-MS/MS on an API-3200-QTrap (Sciex) equipped with an Agilent Technologies 1100 series setup including a binary pump […]), and a Shimadzu […] autosampler under the control of Analyst 1.6 (Sciex). […] B) for 6 min going to (50%:50%) after 8 min. 5 μL of aspirated supernatant diluted in mobile phase starting conditions was loaded onto the column, separated at a flow rate of 400 μL/min, and quantified per Area of MRM (multiple reaction monitoring).

- % rel. act. THRα [1]: 0.070% and 0.082% and 0.063%
- % rel. act. RARα [2]: 0.175% and 0.388% and 0.324%
- % rel. act. PPARα [3]: 1.669% and 2.630% and 1.870%
- % rel. act. PPARγ [4]: 10.373% and 9.960% and 8.281%
- % rel. act. PPARδ [5]: 4.502% and 5.181% and 2.926%
- % rel. act. VDR [6]: 4.840% and 6.730% and 2.930%
- % rel. act. FXR [7]: 0.311% and 0.333% and 0.363%
- % rel. act. LXRα [8]: 2.022% and 2.102% and 1.670%
- % rel. act. RXRα [9]: 0.348% and 0.360% and 0.470%
Structure (SMILES): Cc1nc2c(Cl)cccn2c1NC(=O)c1ccc(-c2ccc(N(C)C)cc2)o1 [Compound 36, N-(8-Chloro-2-methylimidazo[1,2-a]pyridin-3-yl)-5-(4-(dimethylamino)phenyl)furan-2-carboxamide]
- rel. absorbance (450 nm) ([10]; N27, 10 µM, WST-8, vs DMSO ctrl): 94% and 99% and 90% and 91%
- toxicity (WST-8) ([10]; N27 rat neurons, 24 h): no toxic effect; also recorded: non-toxic; also recorded: inactive (10 µM)
- logPe (PAMPA) [11]: -5.647 and -5.642 and -5.6601 and -5.6738
- logPe (BBB) [12]: -4.64 and -4.729 and -4.725 and -4.687 and -4.681 and -4.749

From article PMC11217349, “Development of Nurr1 agonists from amodiaquine by scaffold hopping and fragment growing” (Communications Chemistry, 2024)
